Results as given in PMC1568752 (Environmental Health Perspectives, 1985).

Assays:
[1] = system: aryl hydrocarbon hydroxylase (AHH) induction in rat hepatoma H-4-II-E cells; details: Table 1, PCB congeners; cited from earlier work
[2] = system: ethoxyresorufin O-deethylase (EROD) induction in rat hepatoma H-4-II-E cells; details: Table 1, PCB congeners; cited from earlier work
[3] = target: T1, 2,3,7,8-TCDD hepatic cytosolic receptor protein (Rattus norvegicus, UniProt P41738); test: Competitive binding to the rat hepatic cytosolic 2,3,7,8-TCDD receptor protein; details: for competition with [3H]-2,3,7,8-TCDD for the receptor binding protein: dose-response competition experiments, at high concentrations
T1 sequence (P41738 10-853): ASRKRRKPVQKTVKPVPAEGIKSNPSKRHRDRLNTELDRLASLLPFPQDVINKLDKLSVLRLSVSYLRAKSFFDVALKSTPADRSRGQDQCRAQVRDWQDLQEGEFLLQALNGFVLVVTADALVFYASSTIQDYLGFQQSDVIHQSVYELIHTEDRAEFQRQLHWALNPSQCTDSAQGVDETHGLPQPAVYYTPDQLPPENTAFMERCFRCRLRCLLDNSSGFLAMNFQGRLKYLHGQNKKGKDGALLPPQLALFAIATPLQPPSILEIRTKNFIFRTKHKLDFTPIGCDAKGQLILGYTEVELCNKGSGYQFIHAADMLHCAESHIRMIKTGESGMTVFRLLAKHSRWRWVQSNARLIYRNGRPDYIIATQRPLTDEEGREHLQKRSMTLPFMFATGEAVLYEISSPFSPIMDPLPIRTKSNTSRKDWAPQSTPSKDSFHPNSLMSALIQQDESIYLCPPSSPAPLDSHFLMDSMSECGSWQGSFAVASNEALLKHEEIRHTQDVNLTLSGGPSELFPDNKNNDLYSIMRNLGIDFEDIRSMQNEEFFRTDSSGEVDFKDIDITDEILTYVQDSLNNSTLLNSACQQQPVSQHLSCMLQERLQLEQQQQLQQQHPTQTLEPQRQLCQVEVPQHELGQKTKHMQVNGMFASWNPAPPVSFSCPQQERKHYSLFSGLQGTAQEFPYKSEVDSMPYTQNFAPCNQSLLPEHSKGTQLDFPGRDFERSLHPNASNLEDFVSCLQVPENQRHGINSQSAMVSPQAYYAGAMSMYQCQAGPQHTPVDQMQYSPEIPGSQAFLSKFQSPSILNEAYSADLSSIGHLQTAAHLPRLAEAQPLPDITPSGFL

rats = details: cited from earlier work
pullets = details: eggs from pullets receiving the PCB in their diet at 20 ppm; cited from earlier work
[4] = system: hepatic microsomal AHH and EROD; test: In vivo induction of rat hepatic microsomal AHH and EROD; details: 300 umole/kg, immature male Wistar rats (Figure 7)
DMAP N-demethylase = test: In vivo induction of rat hepatic microsomal DMAP N-demethylase; details: 300 umole/kg, immature male Wistar rats (Figure 7)
[5] = injected intraperitoneally on days 1 and 3, 150 umole/kg per injection in corn oil, killed on day 6

SMILES	-log EC50 AHH induction [1]	-log EC50 EROD induction [2]	in vivo induction of microsomal AHH and EROD [4]	in vivo induction of DMAP N-demethylase (DMAP N-demethylase)	also measured
Clc1ccc(-c2cc(Cl)c(Cl)c(Cl)c2)c(Cl)c1 [2',3,4,4',5-Penta]	5.41	5.95			
Clc1cc(Cl)c(-c2cc(Cl)c(Cl)cc2Cl)cc1Cl [2,2',4,4',5,5'-Hexa, 2,2',4,4',5,5'-hexachlorobiphenyl]					competition with [3H]-2,3,7,8-TCDD for the receptor binding protein [3]: some competition
Clc1cc(Cl)c(-c2cc(Cl)c(Cl)c(Cl)c2)cc1Cl [2,3',4,4',5,5'-Hexa]	4.88	5.05			
Clc1ccc(-c2cc(Cl)c(Cl)cc2Cl)cc1Cl [2,3',4,4',5-Penta, 2,3',4,4',5-pentachlorobiphenyl]	4.94	5.05			thymic atrophy (rats): thymic atrophy; embryo mortality (pullets): 100%
Clc1cc(-c2ccc(Cl)c(Cl)c2Cl)cc(Cl)c1Cl [2,3,3',4,4',5'-Hexa, 2,3,3',4,4',5'-hexachlorobiphenyl]	6.15	5.90			thymic atrophy (rats): thymic atrophy
Clc1ccc(-c2cc(Cl)c(Cl)c(Cl)c2Cl)cc1Cl [2,3,3',4,4',5-Hexa, 2,3,3',4,4',5-hexachlorobiphenyl]	5.68	6.05			thymic atrophy (rats): thymic atrophy
Clc1ccc(-c2ccc(Cl)c(Cl)c2Cl)cc1Cl [2,3,3',4,4'-Penta, 2,3,3',4,4'-Pentachlorobiphenyl]	7.06	6.92			thymic atrophy (rats): thymic atrophy
Clc1ccc(-c2cc(Cl)c(Cl)c(Cl)c2Cl)cc1 [2,3,4,4',5-Penta, 2,3,4,4',5-Pentachlorobiphenyl]	6.02	6.25	significantly induced both	inducers	
Clc1ccc(-c2ccc(Cl)c(Cl)c2Cl)cc1 [2,3,4,4'-Tetra]	4.96	5.72			
Clc1cc(-c2ccccc2)c(Cl)c(Cl)c1Cl [2,3,4,5-Tetra, 2,3,4,5-tetrachlorobiphenyl]					in vivo induction of the cytochrome P-450-dependent monooxygenases (AHH, EROD, DMAP N-demethylase) [4]: do not induce any; competition with [3H]-2,3,7,8-TCDD for the receptor binding protein [3]: some competition
Clc1ccc(-c2cc(Cl)c(Cl)c(Cl)c2)cc1Cl [3,3',4,4'5-Penta, 3,3',4,4',5-pentachlorobiphenyl]	9.62	9.61			
Clc1ccc(-c2ccc(Cl)c(Cl)c2)cc1Cl [3,3',4,4'-Tetra, 3,3',4,4'-tetrachlorobiphenyl]	7.55	7.05			
FC(F)(F)c1ccc(-c2ccc(C(F)(F)F)c(C(F)(F)F)c2)cc1 [3,4,4'-tritrifluoromethylbiphenyl]					competitive binding affinity for the receptor protein ([3]; displacement of [3H]-2,3,7,8-TCDD): unexpectedly low
Cc1ccc2cc3c(ccc4ccccc43)c3c2c1CC3 [3-MC, 3-methylcholanthrene, reference compound]	5.89	6.20			
Clc1cc(-c2ccc(-c3ccccc3)cc2)c(Cl)c(Cl)c1Cl [C6H5, 4'-Phenyl-2,3,4,5-tetrachlorobiphenyl]			significantly induced both		
CC(C)(C)c1ccc(-c2cc(Cl)c(Cl)c(Cl)c2Cl)cc1 [C(CH3)3, 4'-tert-butyl-2,3,4,5-tetrachlorobiphenyl]			significantly induced both	inactive	
O=[N+]([O-])c1ccc(-c2cc(Cl)c(Cl)c(Cl)c2Cl)cc1 [NO2, 4'-Nitro-2,3,4,5-tetrachlorobiphenyl]			significantly induced both	inducers	
Clc1cc2c(cc1Cl)Oc1cc(Cl)c(Cl)cc1O2 [TCDD, 2,3,7,8-tetrachlorodibenzo-p-dioxin, reference compound]	10.02	10.10			
Clc1cc(-c2ccc(Br)cc2)c(Cl)c(Cl)c1Cl [X = Br, 4'-Bromo-2,3,4,5-tetrachlorobiphenyl]			significantly induced both	inducers	
FC(F)(F)c1ccc(-c2cc(Cl)c(Cl)c(Cl)c2Cl)cc1 [X = CF3, 4'-Trifluoromethyl-2,3,4,5-tetrachlorobiphenyl]			significantly induced both	inactive	
Cc1ccc(-c2cc(Cl)c(Cl)c(Cl)c2Cl)cc1 [X = CH3, 4'-Methyl-2,3,4,5-tetrachlorobiphenyl]					in vivo induction of the cytochrome P-450-dependent monooxygenases (AHH, EROD, DMAP N-demethylase) [4]: do not induce any
N#Cc1ccc(-c2cc(Cl)c(Cl)c(Cl)c2Cl)cc1 [X = CN, 4'-Cyano-2,3,4,5-tetrachlorobiphenyl]			significantly induced both	inducers	
CC(=O)c1ccc(-c2cc(Cl)c(Cl)c(Cl)c2Cl)cc1 [X = COCH3, 4'-Acetyl-2,3,4,5-tetrachlorobiphenyl]					in vivo induction of the cytochrome P-450-dependent monooxygenases (AHH, EROD, DMAP N-demethylase) [4]: do not induce any
Fc1ccc(-c2cc(Cl)c(Cl)c(Cl)c2Cl)cc1 [X = F, 4'-Fluoro-2,3,4,5-tetrachlorobiphenyl]			significantly induced both	inducers	
Oc1ccc(-c2cc(Cl)c(Cl)c(Cl)c2Cl)cc1 [X = OH, 4'-Hydroxy-2,3,4,5-tetrachlorobiphenyl]					in vivo induction of the cytochrome P-450-dependent monooxygenases (AHH, EROD, DMAP N-demethylase) [4]: do not induce any
CC(C)c1ccc(-c2cc(Cl)c(Cl)c(Cl)c2Cl)cc1 [X = i-C3H7, 4'-Isopropyl-2,3,4,5-tetrachlorobiphenyl]			significantly induced both	inactive	Residue levels in rat liver [5]: 1-4 ppm
Clc1cc(-c2ccc(I)cc2)c(Cl)c(Cl)c1Cl [X= I, 4'-Iodo-2,3,4,5-tetrachlorobiphenyl]				inactive	
